Results reported in US20100196995A1, “Systems and methods for maintaining the dominance and increasing the biomass production of nannochloropsis in an algae cultivation system” (priority 2009, published 2010).
Marks after values point to notes of the source that are not given here.

What was measured:
Format in all cases: cell-based
Nannochloropsis [1] = test: Example One: pond culture passed through ozone generator, effect on Nannochloropsis
Method: (§1) In the following examples, Nannochloropsis was grown in outdoor, open, three-square meter ponds in Vero Beach, Florida. The climate in Vero Beach is semitropical, with mild, cool winters and hot, humid summers. It is a challenging climate for keeping outdoor algal cultures stable and productive. The overnight warmth encourages predation by protozoa, rotifers, and crustaceans. The humidity allows the airborne transport of competing algae, and thus increases the rate of invasion.
(§2) Ozone was added to an algal cultivation system using a commercial ozone generator with accompanying liquid pump, venturi, and air dryer. The machine used was a small model capable of generating 10 grams of ozone per hour. The flow rate of liquid through the generator was about 16 liters per minute. At fifty percent (50%) of maximal ozone generation, the concentration of ozone in the liquid after one pass through the ozone generator was 4.6 mg/L, and at 100% was 9.6 mg/L.
(§3) Two three-square meter ponds were started by taking 500L of culture from a larger pond and passing it through the ozone generator once. One pond was started with the ozonator setting at 50%, the other pond was started with the ozonator setting at 100%. The original algal culture had numerous clumps of Nannochloropsis, cell debris, various diatoms, and some ciliated protozoa grazers.
The two algal cultures were allowed to grow for two days without dilution, but with nutrient addition to see whether the ozone treatment changed the production of biomass and the subsequent stability of the cultures. After two days of batch growth, each pond was diluted one third per day and recirculated each day through the ozone generator for 30 minutes. During this time period about 500L, or one volume equivalent was treated. As before, one pond was passed through the machine at 50% setting and one at 100% setting.

diatoms [2] = test: Example One: pond culture passed through ozone generator, effect on diatoms; conditions: ozonator setting 50% (4.6 mg/L) or 100% (9.6 mg/L)
Method: as §1, §2, §3

[3] = system: ciliated protozoa grazers; test: Example One: pond culture passed through ozone generator, effect on grazers; conditions: ozonator setting 50% (4.6 mg/L) or 100% (9.6 mg/L)
Method: as §1, §2, §3

Nannochloropsis [4] = test: Example Two: ozone skid tests on outdoor ponds D4, MP1, 25A, Nannochloropsis productivity and resistance
Method: as §1
(§4) An ozone skid was assembled on-site utilizing a dry air feed ozone generator capable of producing 10 g/h of ozone.
(§5) A small pump was connected to the system with the ozone added to the liquid recycle line via a Mazzei gas to liquid injector capable of flow rates between 13.2-28.35 1pm@pressures ranging from 15-25 psi. Tests were run on ponds D4 (3 m^2 surface area), MP1 (3 m^2 surface area), and 25A (25 m^2 surface area) with salinities ranging from 20-24 ppt using flow rates of 13.2 and 15.6 1pm@20 psi. The ozonator is equipped with a variable transformer that offers the ability to vary ozone dosage between 0-100%. Tests were run at ozone concentrations of 25%, 50%, 75%, and 100% at flow rates of 13.2 and 15.6 1pm.
Productivity results of the three pond systems run at the high concentrations are listed below:
(§6) Nannochloropsis was unaffected by ozone at these dosages.
(§7) Using the skid mounted system as an in-situ transfer treatment to inoculate new ponds was also tested with very favorable results. Both D4 (3 m^2) and MP1 (3 m^2) were filled with ozone treated inoculums from one of the larger ponds that had large amounts of clumps and decreasing productivity. The effect of this was that most of the clumps (>80%) were broken up and the grazers present inside of the clumps were destroyed as well as free grazers and diatoms in the solution with no effect on Nannochloropsis.

diatoms [5] = test: Example Two: ozone skid tests on outdoor ponds, ozone disinfection of diatoms
Method: as §1, §4, §5, §6, §7

grazers = test: Example Two: ozone skid tests on outdoor ponds, ozone disinfection of grazers
Method: as §1, §4, §5, §6, §7

Nannochloropsis [6] = test: Exposure of Nannochloropsis cultures to extremely high (shock) levels of ozone; conditions: above 30 milligrams/liter ozone, exposure not prolonged
Source text: At alternative step 135, if the level or amount of predators and/or invaders exceeds an actual or desired level, the ozone concentration of the algae cultivation system may be adjusted by applying an effective “shock” amount of ozone. The ozone concentration of the algae cultivation system may be adjusted via the inlet stream that feeds into the algae cultivation system. Applying an effective shock amount of ozone to the inlet stream may result in an initial ozone concentration of the inlet stream above 10 milligrams/liter, which feeds into the algae cultivation system. An unexpected result observed via the experiments described herein is that Nannochloropsis cultures exposed to extremely high levels of ozone (above 30 milligrams/liter) recover (i.e., the Nannochloropsis cultures were not killed), provided the exposure to the ozone is not prolonged. […] Note: steps 130 and 135 may be performed in alternating or rotating fashion, provided the ozone concentration is properly observed.

[7] = 25 m^2 pond 25A, side stream treated
[8] = in-situ transfer treatment of inoculums for D4 and MP1
[9] = 3 m^2 ponds D4 and MP1, concentrations of ozone tested

O=[O+][O-] [Ozone, ozone]
Survival of Nannochloropsis after one pass through the ozone generator (Nannochloropsis [1]; 500L culture, one pass, ozonator setting 50% (4.6 mg/L) or 100% (9.6 mg/L)): only single cells of Nannochloropsis survived | Ill effects from the ozone on Nannochloropsis ponds (Nannochloropsis [1]; both ponds (50% and 100% setting), daily 30 minute recirculation for three days): no ill effects | Production of biomass above that of a control pond (Nannochloropsis [1]; both ponds (50% and 100% setting), recirculated 30 minutes per day through ozone generator for three days, diluted one third per day): 20% | Clumps of Nannochloropsis after one pass through the ozone generator (Nannochloropsis [1]; one pass, ozonator setting 50% (4.6 mg/L) or 100% (9.6 mg/L)): completely broken up | Diatoms after one pass through the ozone generator (diatoms [2]): killed | Grazers after one pass through the ozone generator [3]: killed | Effect of ozone on Nannochloropsis (Nannochloropsis [4]; 3 m^2 ponds D4 and MP1, at these dosages): unaffected | Clumping after exposure to ozone (Nannochloropsis [4]; [7]): clumping did not become as dramatic of a problem | Productivity (Nannochloropsis [4]; Pond 25A (25 m^2), Jul. 09, 2008, total 5950 mg O3, 5615 liters recycled): 16.1 g/m^2/day | Productivity (Nannochloropsis [4]; Pond 25A (25 m^2), Jul. 10, 2008, total 5950 mg O3, 5615 liters recycled): 4.6 g/m^2/day | Productivity (Nannochloropsis [4]; Pond 25A (25 m^2), Jul. 11, 2008, total 5950 mg O3, 5615 liters recycled, pond temperature reached 39° C.): −8.3* g/m^2/day | Productivity (Nannochloropsis [4]; Pond 25A (25 m^2), Jul. 12, 2008, total 5950 mg O3, 5615 liters recycled): 12.2 g/m^2/day | Productivity (Nannochloropsis [4]; Pond 25A (25 m^2), Jul. 13, 2008, total 5950 mg O3, 5615 liters recycled): 10.7 g/m^2/day | Productivity (Nannochloropsis [4]; Pond 25A (25 m^2), Jul. 14, 2008, total 5950 mg O3, 5615 liters recycled): 8.0 g/m^2/day | Productivity (Nannochloropsis [4]; Pond D4 (3 m^2), Jul. 09, 2008, total 500 mg O3, 470 liters recycled): 15.4 g/m^2/day | Productivity (Nannochloropsis [4]; Pond D4 (3 m^2), Jul. 10, 2008, total 500 mg O3, 470 liters recycled): 16.1 g/m^2/day | Productivity (Nannochloropsis [4]; Pond D4 (3 m^2), Jul. 11, 2008, total 500 mg O3, 470 liters recycled): 16.0 g/m^2/day | Productivity (Nannochloropsis [4]; Pond D4 (3 m^2), Jul. 12, 2008, total 500 mg O3, 470 liters recycled): 8.4 g/m^2/day | Productivity (Nannochloropsis [4]; Pond D4 (3 m^2), Jul. 13, 2008, total 500 mg O3, 470 liters recycled): 12.2 g/m^2/day | Productivity (Nannochloropsis [4]; Pond D4 (3 m^2), Jul. 14, 2008, total 500 mg O3, 470 liters recycled): 14.9 g/m^2/day | Productivity (Nannochloropsis [4]; Pond MP1 (3 m^2), Jul. 09, 2008, total 500 mg O3, 470 liters recycled): 13.3 g/m^2/day | Productivity (Nannochloropsis [4]; Pond MP1 (3 m^2), Jul. 10, 2008, total 500 mg O3, 470 liters recycled): 17.2 g/m^2/day | Productivity (Nannochloropsis [4]; Pond MP1 (3 m^2), Jul. 11, 2008, total 500 mg O3, 470 liters recycled): 16.9 g/m^2/day | Productivity (Nannochloropsis [4]; Pond MP1 (3 m^2), Jul. 12, 2008, total 500 mg O3, 470 liters recycled): 9.0 g/m^2/day | Productivity (Nannochloropsis [4]; Pond MP1 (3 m^2), Jul. 13, 2008, total 500 mg O3, 470 liters recycled): 16.0 g/m^2/day | Productivity (Nannochloropsis [4]; Pond MP1 (3 m^2), Jul. 14, 2008, total 500 mg O3, 470 liters recycled): 13.4 g/m^2/day | Effect on Nannochloropsis (Nannochloropsis [4]; [8]): no effect | Clumps broken up (Nannochloropsis [4]; in-situ transfer treatment: D4 and MP1 filled with ozone treated inoculums from a larger pond with large amounts of clumps): > 80% | Clump formation after daily repeated exposure to ozone (Nannochloropsis [4]; small 3 m^2 ponds D4 and MP1): clumps did form in large numbers | Effect of ozone exposure on diatoms present (diatoms [5]; [9]): adversely affected after exposure to ozone resulting in their elimination | Effect of ozone exposure on diatoms (diatoms [5]; [7]): similarly affected | Free diatoms in the solution (diatoms [5]; [8]): destroyed | Effect of ozone exposure on grazers present (grazers; [9]): adversely affected after exposure to ozone resulting in their elimination | Effect of ozone exposure on grazers (grazers; [7]): similarly affected | Grazers inside of the clumps and free grazers in the solution (grazers; [8]): destroyed | Outcome of Nannochloropsis cultures after extremely high levels of ozone (Nannochloropsis [6]): recover
